The source of these data is article PMC11160566 (ACS infectious diseases, 2024).

Assay [1] has as its target T1, GES-5 carbapenemase (Klebsiella pneumoniae, UniProt Q09HD0). The experiment in a line: reporter substrate hydrolysis, absorbance at […] nm. The format is biochemical.
Assay [2] has as its target T1, GES-5 carbapenemase. The experiment in a line: X-ray crystal structure of acyl-enzyme. Type of assay: binding.

T1 sequence (Q09HD0 19-287): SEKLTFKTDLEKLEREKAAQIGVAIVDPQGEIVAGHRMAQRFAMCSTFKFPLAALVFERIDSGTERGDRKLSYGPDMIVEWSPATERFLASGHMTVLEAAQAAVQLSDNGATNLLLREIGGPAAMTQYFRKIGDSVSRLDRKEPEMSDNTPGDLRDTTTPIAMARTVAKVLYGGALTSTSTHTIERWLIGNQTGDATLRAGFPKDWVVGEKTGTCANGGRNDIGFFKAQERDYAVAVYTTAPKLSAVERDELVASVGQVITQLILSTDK

Regarding `O=C(Cc1cccs1)N[C@@H]1C(=O)N2C(C(=O)O)=C(/C=C/c3ccc([N+](=O)[O-])cc3[N+](=O)[O-])CS[C@H]12` [nitrocefin], the “reporter substrate hydrolysis, absorbance at 500 nm” value on GES-5 carbapenemase [1] is on record as “The progress curves for nitrocefin hydrolysis by GES-5 in the presence of NA-1-157”.
In the case of `C[C@@H](O)[C@H]1C(=O)N2C(C(=O)O)=C(S[C@@H]3CN[C@H](C(=O)N(C)C)C3)[C@H](C)[C@H]12` [MEM, meropenem], the “X-ray crystal structure of acyl-enzyme (1.62 Å)” value on GES-5 carbapenemase [2] is “The 3D structures of the acyl-enzyme complexes of GES-5-meropenem and GES-5-NA-1-157 were determined by X-ray crystallography”.
